Results: patent publication US11542225B2, “Lipids for use in lipid nanoparticle formulations” (ACUITAS THERAPEUTICS, INC., priority 2017, dated 2023)
Read-outs that look alike come from different tables or passages of the source.

Key:
[1] = system: luciferase expression in the liver; test: Luciferase mRNA in vivo evaluation using lipid nanoparticle compositions; parameters: species or system mice; conditions: novel lipids; values marked * in the 1.0 mg/kg column: dosed at 0.5 mg/kg; tail vein injection, 4 hours after administration
[2] = Determination of pKa of formulated lipids (TNS fluorescence assay in lipid nanoparticles); type: physicochemical
Excerpt: As described elsewhere, the pKa of formulated lipids was correlated with the effectiveness of LNPs for delivery of nucleic acids (see Jayaraman et al, Angewandte Chemie, International Edition (2012), 51(34), 8529-8533; Semple et al, Nature Biotechnology 28, 172-176 (2010)). In some embodiments, the preferred range of pKa was ˜5 to ˜7. […] Lipid nanoparticles comprising compound of structure (I)/DSPC/cholesterol/PEG-lipid (50/10/38.5/1.5 or 47.5:10:40.8:1.7 mol %) in PBS at a concentration of 0.4 mM total lipid were prepared using the in-line process as described in Example 1. TNS was prepared as a 100 μM stock solution in distilled water. Vesicles were diluted to 24 μM lipid in 2 mL of buffered solutions containing 10 mM HEPES, 10 mM MES, 10 mM ammonium acetate, and 130 mM NaCl, where the pH ranged from 2.5 to 11. An aliquot of the TNS solution was added to give a final concentration of 1 μM and following vortex mixing fluorescence intensity was measured at room temperature in a SLM Aminco Series 2 Luminescence Spectrophotometer using excitation and emission wavelengths of 321 nm and 445 nm. A sigmoidal best fit analysis was applied to the fluorescence data and the pKa was measured as the pH giving rise to half-maximal fluorescence intensity.

[3] = system: luciferase expression in the liver; test: Luciferase mRNA in vivo evaluation using lipid nanoparticle compositions; parameters: species or system mice; conditions: for Liver Luc @ 0.3 mg/kg (ng luc/g liver) / Liver Luc @ 1.0 mg/kg (ng luc/g liver): novel lipids, tail vein injection, 4 hours after administration; for Liver Luc @ 0.3 mg/kg (ng luc/g liver): 0.3 mg mRNA/kg; for Liver Luc @ 1.0 mg/kg (ng luc/g liver): 1.0 mg mRNA/kg
Description: A lipid of structure (I), DSPC, cholesterol and PEG-lipid were solubilized in ethanol at a molar ratio of 50:10:38.5:1.5 or 47.5:10:40.8:1.7. Lipid nanoparticles (LNP) were prepared at a total lipid to mRNA weight ratio of approximately 10:1 to 30:1. Briefly, the mRNA was diluted to 0.2 mg/mL in 10 to 50 mM citrate buffer, pH 4. Syringe pumps were used to mix the ethanolic lipid solution with the mRNA aqueous solution at a ratio of about 1:5 to 1:3 (vol/vol) with total flow rates above 15 mL/min. The ethanol was then removed and the external buffer replaced with PBS by dialysis. Finally, the lipid nanoparticles were filtered through a 0.2 μm pore sterile filter.
Studies were performed in 6-8 week old female C57BL/6 mice (Charles River) 8-10 week old CD-1 (Harlan) mice (Charles River) according to guidelines established by an institutional animal cwere committee (ACC) and the Canadian Council on Animal Cwere (CCAC). Varying doses of mRNA-lipid nanoparticle were systemically administered by tail vein injection and animals euthanized at a specific time point (e.g., 4 hours) post-administration. Liver and spleen were collected in pre-weighed tubes, weights determined, immediately snap frozen in liquid nitrogen and stored at −80° C. until processing for analysis.
For liver, approximately 50 mg was dissected for analyses in a 2 mL FastPrep tubes (MP Biomedicals, Solon Ohio). ¼″ ceramic sphere (MP Biomedicals) was added to each tube and 500 μL of Glo Lysis Buffer—GLB (Promega, Madison Wis.) equilibrated to room temperature was added to liver tissue. Liver tissues were homogenized with the FastPrep24 instrument (MP Biomedicals) at 2×6.0 m/s for 15 seconds. Homogenate was incubated at room temperature for 5 minutes prior to a 1:4 dilution in GLB and assessed using SteadyGlo Luciferase assay system (Promega). Specifically, 50 μL of diluted twassue homogenate was reacted with 50 μL of SteadyGlo substrate, shaken for 10 seconds followed by 5 minute incubation and then quantitated using a CentroXS^3 LB 960 luminometer (Berthold Technologies, Germany). The amount of protein assayed was determined by using the BCA protein assay kit (Pierce, Rockford, Ill.). Relative luminescence units (RLU) were then normalized to total μg protein assayed. To convert RLU to ng luciferase a standard curve was generated with QuantiLum Recombinant Luciferase (Promega).
The FLuc mRNA (L-6107) from Trilink Biotechnologies will express a luciferase protein, originally isolated from the firefly, Photinus pyralwas. FLuc was commonly used in mammalian cell culture to measure both gene expression and cell viability. It emits bioluminescence in the presence of the substrate, luciferin. This capped and polyadenylated mRNA was fully substituted with 5-methylcytidine and pseudouridine.
Compounds of structure (I) were formulated using the following molar ratio: 47.5% cationic lipid/10% dwastearoylphosphatidylcholine (DSPC)/40.8% Cholesterol/1.7% PEG lipid (“PEG-DMA” 2-[2-(ω-methoxy(polyethyleneglycol2000)ethoxy]-N,N-ditetradecylacetamide). Relative activity was determined by measuring luciferase expression in the liver 4 hours following administration via tail vein injection as described in Example 1. The activity was compared at a dose of 0.3 and 1.0 mg mRNA/kg and expressed as ng luciferase/g liver measured 4 hours after administration, as described in Example 1.
The cationic lipids shown in Table 2 have previously been tested with nucleic acids. For comparative purposes, these lipids were also used to formulate lipid nanoparticles containing the FLuc mRNA (L-6107) using an in line mixing method, as described in Example 1 and in PCT/US10/22614, which is hereby incorporated by reference in its entirety. […]

[4] = Table 3, lipid formulated in LNP, TNS assay

Row | Structure (SMILES) | Liver Luc (ng luc/g liver), dosed at 0.5 mg/kg [1] | pKa [2, 4] | pKa [2] | Relative activity in the luciferase assay relative to MC3 ([3]; luciferase expression in liver 4 hours after tail vein injection, 47.5/10/40.8/1.7 formulation with PEG-DMA) | Liver Luc @ 0.3 mg/kg (ng luc/g liver) [3] [ng luc/g liver] | Liver Luc @ 1.0 mg/kg (ng luc/g liver) [3] [ng luc/g liver]
1 | CCCCCCCCC(CCCCCC)COC(=O)CCCCCCCN(CCCCCCCC(=O)OCC(CCCCCC)CCCCCCCC)CCCCOCC(O)C(O)COCCCCN(CCCCCCCC(=O)OCC(CCCCCC)CCCCCCCC)CCCCCCCC(=O)OCC(CCCCCC)CCCCCCCC (stereo not shown) [Compound 1] | 174 ± 43* ng luc/g liver | 6.18 |  |  |  | 
2 | CCCCCCCCC(CCCCCC)COC(=O)CCCCCN(CCCCCC(=O)OCC(CCCCCC)CCCCCCCC)CCCOCC(O)C(O)COCCCN(CCCCCC(=O)OCC(CCCCCC)CCCCCCCC)CCCCCC(=O)OCC(CCCCCC)CCCCCCCC (stereo not shown) [Compound 2] |  |  | 6.14 | 4.4 | 1225 ± 159 | 4876 ± 1273
3 | CCCCCCCCC(CCCCCC)COC(=O)CCCCCN(CCCCCC(=O)OCC(CCCCCC)CCCCCCCC)CCCOCCOCCOCCCN(CCCCCC(=O)OCC(CCCCCC)CCCCCCCC)CCCCCC(=O)OCC(CCCCCC)CCCCCCCC (stereo not shown) [Compound 3] |  | 5.3 |  |  | 33 ± 9 | 99 ± 41
4 | CCCCCCCCC(CCCCCC)COC(=O)CCCCCC(CCCCCC(=O)OCC(CCCCCC)CCCCCCCC)NCCCOCCOCCOCCCNC(CCCCCC(=O)OCC(CCCCCC)CCCCCCCC)CCCCCC(=O)OCC(CCCCCC)CCCCCCCC (stereo not shown) [Compound 4] |  |  | 7.2 |  |  | 
5 | CCCCCCCCC(CCCCCC)C(=O)OCCCCCCCCCC(CCCCCCCCCOC(=O)C(CCCCCC)CCCCCCCC)OC(=O)CCCCNCCCCN(C)CCCCC(=O)OC(CCCCCCCCCOC(=O)C(CCCCCC)CCCCCCCC)CCCCCCCCCOC(=O)C(CCCCCC)CCCCCCCC (stereo not shown) [Compound 5] |  |  | 4.24 |  |  | 
6 | CCCCCCCCC(CCCCCC)COC(=O)CCCCCN(CCCCCC(=O)OCC(CCCCCC)CCCCCCCC)CCCN(C)CCCN(CCCCCC(=O)OCC(CCCCCC)CCCCCCCC)CCCCCC(=O)OCC(CCCCCC)CCCCCCCC (stereo not shown) [Compound 6] |  | 5.81 |  |  | 92 ± 13 | 169 ± 46
7 | CCCCCCC(CCCC)COC(=O)CCCCCN(CCCCCC(=O)OCC(CCCC)CCCCCC)CCCN(C)CCCN(CCCCCC(=O)OCC(CCCC)CCCCCC)CCCCCC(=O)OCC(CCCC)CCCCCC (stereo not shown) [Compound 7] |  | 5.91 |  |  | 590 ± 98 | 2473 ± 443
8 | CCCCCCCCC(CCCCCC)COC(=O)CCCCCC(CCCCCC(=O)OCC(CCCCCC)CCCCCCCC)NCCCOCCOCCOCCCN(CCCCCC(=O)OCC(CCCCCC)CCCCCCCC)CCCCCC(=O)OCC(CCCCCC)CCCCCCCC (stereo not shown) [Compound 8] | 479 ± 163* ng luc/g liver | 6.53 |  |  |  | 
